This is an account of results in patent US11192920B2, “Peptides for binding to CD44v6 and use thereof” (KYUNGPOOK NATIONAL UNIVERSITY INDUSTRY-ACADEMIC COOPERATION …, priority 2017, dated 2021).

Assay [1] deals with MDA-MB-231 tumor model. In words: MDA-MB-231 lung metastasis model. The following applies: peptide i.v. 14.2 mg/g 3 times a week for 3 weeks; crizotinib oral 25 mg/kg; vs saline and control peptide. Format: in vivo, mice. The method, then: (§1) For animal models, 6-week-old to 8-week-old Balb/c female mice were purchased from Orient Bio. Mice were cared for and maintained in conformance with the Guidelines of the Institutional Animal Care and Use Committee (IACUC) of Kyungpook National University. Tumors were prepared by injecting 1×10^6 MDA-MB-231 cells via tail vein to develop lung metastatic model in Balb/c female nude mice and 1×10^6 4T1 cells into the lower left mammary fat pad of Balb/c wild type female mice.
(§2) Tumor-bearing mice were subjected to randomization and grouping when the size of the tumors reached approximately 100 mm^3. Each peptide was intravenously injected via the tail vein of mice ([…] of body weight, 3 times a week for 3 weeks). Crizotinib was given through orally (25 mg/kg of body weight, three times a week for 3 weeks) based on a previous study. Tumor size was measured using a digital caliper, and tumor volume was calculated using the following formula: Volume=(L×W×H)/2 (L: length, longest dimension, W: width, shorter dimension, parallel to the mouse body, and H: height, perpendicular to the length and width). Mice were checked for tumor ulceration. At the end of the treatment, the mice were sacrificed, and the lung and liver were isolated and checked for metastatic tumor masses.
MDA-MB231-luc cells (1×10^6 in 0.1 ml PBS) were injected into the lateral tail vein of female nude mice. The mice were then segregated into groups (n=10 per group) based on initial IVIS image. Starting from day 0, mice were administered CD44v6 peptides by intravenously injected via the tail vein of mice ([…] of body weight, 3 times a week for 3 weeks). After the last IVIS imaging, mice were euthanized and lung tissues were removed from each mouse for metastatic tumor masses immunohistochemical analyses.
(§3) At the end of the treatment, mouse blood was collected and hematological factors were analyzed by DGMIF (Daegu-Gyeongbuk Medical Innovation Foundation) (Daegu, Korea).
CD44v6 Peptides was stable without degradation for at least 24 hours in the presence of serum.

For assay [2], the system named is 4T1 tumor model. In words: Anti-tumor therapy in 4T1 tumor model. Format: in vivo, mice. The note with it: for tumor and metastatic growth (bioluminescence imaging): peptide i.v. 14.2 mg/kg thrice a week, crizotinib oral 25 mg/kg thrice a week, vs saline. The method, then: as §1, §2, §3
In vivo anti-tumor activity was further evaluated in 4T1 orthotopic mice models. In relevant with the biodistribution and pharmacokinetic results, in vivo therapy was started by administrating 14.2 mg/kg thrice a week via intravenous injection of CD44v6 peptides and 25 mg/kg crizotinib thrice a week orally.

In assay [3] the target is wild-type CD44 (Homo sapiens, UniProt P16070). The following applies: biotinylated peptide + avidin bead + cell lysate. As to the method: (§4) Biotinylated CD44v6 peptides was incubated with monomer avidin magnetic beads (Bioclone Inc.) for 30-60 min at room temperature with gentle rotation to be used for peptide pulldown, prior to incubation with cell lysates. Cells were lysed using cell lysis reagent (Thermo scientific) with protease inhibitors. After the first incubation of biotinylated peptide+avidin bead (complex 1) were washed with PBS and complex is incubated with cell lysate for 30-60 min at room temperature with gentle rotation. Bound biotinylated peptide+avidin bead+cell lysate (complex 2) were eluted by 1× blocking buffer/elution buffer for 5-10 min incubation after elution and the elute was subjected to western blot analysis using CD44v6 antibody (Millipore) to pull down the specific protein.
Chain of wild-type CD44 (P16070 21-361 isoform P16070-12 limits assumed): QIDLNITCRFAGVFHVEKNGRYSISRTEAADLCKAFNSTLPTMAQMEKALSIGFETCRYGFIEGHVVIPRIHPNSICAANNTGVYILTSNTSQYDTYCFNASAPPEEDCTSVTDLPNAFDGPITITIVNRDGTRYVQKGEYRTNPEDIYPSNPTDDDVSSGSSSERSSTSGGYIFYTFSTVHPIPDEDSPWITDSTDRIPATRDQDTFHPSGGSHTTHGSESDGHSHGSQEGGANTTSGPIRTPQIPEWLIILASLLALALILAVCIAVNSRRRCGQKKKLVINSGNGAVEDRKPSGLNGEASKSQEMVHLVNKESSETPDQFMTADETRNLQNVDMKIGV
(§5) Biotinylated peptide+avidin bead+cell lysate (complex 2) were eluted for western blot analysis using CD44v6 antibody to pull down the specific protein.

Assay [4] has as its system CD44v6. The following applies: biotinylated peptide + avidin bead + cell lysate. As to the method: as §4, §5
In assay [5] the test system is CD44 variant 6 expressing cells MDA-MB231, HELA, 4T1 and PANC-1. The following applies: CD44v6 expressing cells. The method, then:
(§6) After complete adhesion, the cell culture medium was replaced with fresh medium containing FITC labeled peptides (10 μM) and then the cells were incubated at 37° C. for 1 h and cells were washed with PBS for 3-5 min (thrice) and stained with CD44v6 antibody (Santa cruz), followed by Alexa 594-labeled goat anti-mouse IgG secondary antibody.
(§7) To screen CD44v6-binding peptides, the present inventors first prepared HEK-293 cells transfected with CD44v6-GFP plasmid by transient transfection. […] Twenty phage clones were randomly picked from the third, fourth, and fifth rounds and the peptide-coding DNA inserts of the phage clones were sequenced.

The subject of assay [6] is MCF-7. The note with it: CD44v6 non-expressing cells. As to the method:
as §6, §7

Assay [7] has as its system CD44v6 silenced MDA-MB-231 cells. The following applies: for binding of FITC labelled peptide after silencing of CD44v6 gene (flow cytometry): MDA-MB-231, CD44v6 siRNA; for binding of FITC labelled peptide after siRNA treatment (immunofluorescence staining): MDA-MB-231, siRNA 100 nmol. The method, then:
Control siRNA (50-[…] (dTdT) 30) and glyceraldehyde-3 phosphate dehydrogenase (GAPDH) siRNA (50-[…] (dTdT)-30) were also purchased from Bioneer, Daejeon, Korea. The transfection was performed using Lipofectamine 2000 (Invitrogen, Karlsruhe, Germany). Two rounds of transfection with an interval of 24 h between were performed. 48 h after the first transfection the cells were serum-starved for 24 h and then subjected to further treatment.
MDA-MB-231 cells were serum-starved for 24 hours and then subjected to further treatment. SiRNAs v6-1 and v6-2 transfected and kept it for different time interval to achieve the CD44v6 expression inhibition.
A general note: A flow cytometer gives signals particle by particle.

Assay [8] relates to MDA-MB-231 xenograft. The following applies: anti-CD44v6 antibody staining.
Experimental: Tumor tissues were further fixed with 4% paraformaldehyde overnight and rapidly frozen. Tissue slices (8-μm thick) were prepared using a cryo-microtome and stained with CD44v6 antibody (Santa Cruz), followed by Alexa 594-labeled goat anti-mouse IgG secondary antibody.
The test system of assay [9] is 4T1 orthotopic mice. The following applies: anti-CD44v6 antibody staining.
Experimental: To analyze ex vivo organ distribution, animals were euthanized at 6 h post-injection with CO2. All major organs (liver, kidney, spleen, heart, and lung) along with tumor tissues were isolated and washed in PBS and ex vivo fluorescence images were taken using the IVIS Lumina III imaging system. Fluorescence intensity within the region of interest (ROI) of each organs was analyzed. Tumor tissues were further fixed with 4% paraformaldehyde overnight and rapidly frozen. Tissue slices (8-μm thick) were prepared using a cryo-microtome and stained with CD44v6 antibody (Santa Cruz), followed by Alexa 594-labeled goat anti-mouse IgG secondary antibody. […]
In vivo fluorescence images were taken before or after injection at various time points (1, 2, 4 and 6 h, respectively) with flamma 675 was injected at the same concentration and method. […]
Ex vivo fluorescence images of excised tumor and organs collected at 6 h post-injection. All major organs (liver, kidney, spleen, heart, and lung) along with tumor tissues were isolated and washed in PBS and ex vivo fluorescence images were taken (n=3) with FPR-675 fluorophore excitation at 675 nm and emission at 698 nm. Fluorescence intensity within the region of interest (ROI) of each organ was analyzed.
Assay [10] deals with MDA-MB-231 cells. The note with it: MDA-MB-231, dose-dependent.
The test system of assay [11] is c-Met and Erk phosphorylation in MDA-MB-231 cells. The note with it: MDA-MB-231, HGF 25-50 ng/mL; peptides 5 ug/ml each, combination 10 μg/ml.
Experimental: Serum-starved cells (24 hours) were induced with the growth factor HGF (25-50 ng/mL), at 37° C. for 10 min. Where indicated, the cells were treated with a CD44v6 specific peptide or a control peptide (50 μg/ml) at 37° C. for 10 min before induction and cells were washed with ice-cold phosphate-buffered saline (PBS). To detect activated Erk and activated c-Met, cells were lysed in boiling sodium dodecyl sulfate (SDS) sample buffer containing 100 mM dithiothreitol (DTT) and subjected to Western blot analysis using antibodies against phosphorylated Erk and phosphorylated c-Met. The loading control was performed on the same blot, stripped (62.5 mM Tris, pH 6.8, 2% SDS, 0.8% DTT), and probed with the Erk and c-Met antibodies. Blots were stained using the enhanced chemiluminescence system (Thermo Fisher Scientific). Bands in Western blot analysis were quantified with the program ImageJ (National Institutes of Health).
In the present invention, MDA-MB-231 and 4T1 cells were serum-starved (24 hours) and were induced with the growth factor HGF (25-50 ng/mL) at 37° C. for 10 min. The cells were treated with a CD44v6 specific peptide or a control peptide (100 ng/ml) at 37° C. for 10 min before induction. To detect activated Erk and activated c-Met, cells were lysed and subjected to Western blot analysis using antibodies against phosphorylated Erk and phosphorylated c-Met. […]
Assay [12] deals with MCF-7 cells.
Assay [13] relates to c-Met. The note with it: biotinylated peptide + avidin bead + cell lysate.

Chain of CD44v6 (P16070 386-428 limits assumed): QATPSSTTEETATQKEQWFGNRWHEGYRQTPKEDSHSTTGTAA

In the case of `C[C@@H](Oc1cc(-c2cnn(C3CCNCC3)c2)cnc1N)c1c(Cl)ccc(F)c1Cl` [crizotinib, reference compound], the “metastasis (bioluminescence imaging)” value in assay [1] is listed as “inhibited metastatic growth”. Besides, the “tumor growth (tumor volume)” value in [2] (4T1 bearing mice) was “Slight reduction of tumor volume”. In addition, the “tumor and metastatic growth (bioluminescence imaging)” value (“tumor and metastatic growth” for short) in assay [2] was “slightly inhibited tumor and metastatic growth”.

As to CNEWQLKSC [v6Pep-2], in assay [3], the “pull down of wild-type CD44” value is reported as “not pulled down”. In assay [4], the “pull down of CD44v6” value was “pulled down”. The “binding to MDA-MB-231, 4T1 and PANC-1” value in assay [5] is “bind specifically”. The “binding to MCF-7” value in [6] is on record as “did not show specific binding”. The “binding of FITC labelled peptide after silencing of CD44v6 gene (flow cytometry)” value in assay [7] was “binding got inhibited”. Moreover, in [7], the “binding of FITC labelled peptide after siRNA treatment (immunofluorescence staining)” value is reported as “negligible binding”. In addition, the “metastasis (bioluminescence imaging)” value in assay [1] was “inhibited metastatic growth”. The “immunohistochemical examination of tumor tissues” value in [8] and in assay [9] was “co-localized with CD44v6” throughout. Moreover, in assay [2], the “tumor and metastatic growth” value was “slightly inhibited tumor and metastatic growth”. Moreover, the “binding of FITC labelled peptide after pre-treatment with anti-CD44v6 blocking antibody” value in assay [10] is recorded as “significantly reduced the binding”; in assay [12] it was “minimal effect”. The “phosphorylation of c-Met and its downstream target Erk” value in assay [11] is “drastically reduced the phosphorylation”.

For the molecule CNLNTIDTC [v6Pep-1], the “pull down of wild-type CD44” value in assay [3] is reported as “not pulled down”. Further, the “pull down of CD44v6” value in assay [4] is listed as “pulled down”. The “binding to MDA-MB-231, 4T1 and PANC-1” value in [5] is given as “bind specifically”. The “binding to MCF-7” value in assay [6] is given as “did not show specific binding”. For the same molecule, the “pull down of c-Met” value in assay [13] is listed as “pulled down”. In addition, the “binding of FITC labelled peptide after silencing of CD44v6 gene (flow cytometry)” value in assay [7] is “binding got inhibited”. Moreover, in assay [7], the “binding of FITC labelled peptide after siRNA treatment (immunofluorescence staining)” value is “negligible binding”. Besides, the “metastasis (bioluminescence imaging)” value in [1] is listed as “inhibited metastatic growth”. Also, the “immunohistochemical examination of tumor tissues” value in assay [8] and in [9] was “co-localized with CD44v6” in each case. The “tumor and metastatic growth” value in [2] is “slightly inhibited tumor and metastatic growth”. In addition, the “binding of FITC labelled peptide after pre-treatment with anti-CD44v6 blocking antibody” value in [10] is “significantly reduced the binding”; in [12] it was “minimal effect”. The “phosphorylation of c-Met and its downstream target Erk” value in assay [11] is recorded as “drastically reduced the phosphorylation”.
